From patent publication US9829481B2, “Senescence tracers” (Eberhard Karls Universitaet Tuebingen Medizinische Fakultaet, priority 2012, dated 2017) come the findings set out here.

Common to all, as to format: cell-based
For assay [1], the system named is MCF7 cells (breast cancer cell line). The experiment in a line: Senescence β-galactosidase staining, light microscopy. The following applies: 250 nM Doxorubicin for 24 hours. As for the experimental part: FIG. 2: Light microscope pictures of β-gal-stained HCT116 and MCF7 cells with and with out 250 nM Doxorubicin treatment.
To stimulate HCT116 (colorectal carcinoma cell line) cells and MCF7 (breast cancer cell line) cells for senescence β-galactosidase staining, the cells were treated with 250nM Doxorubicin for 24 hours. Doxorubicin interacts with DNA by intercalation and inhibits the progression of the enzyme topoisonerase II.

Assay [2] has the same test system. In words: Lysosome staining with LysoTracker. The following applies: presence vs absence of Doxorubicin. An excerpt:
(§1) FIG. 3: Graph of staining signals obtained for HCT116 and MCF7 cells stained with LysoTracker® both in the presence and absence of Doxorubicin.

Assay [3] deals with HCT116 cells (colorectal carcinoma cell line). The experiment in a line: Lysosome staining with LysoTracker. As to conditions: presence vs absence of Doxorubicin.
Text: as §1

The subject of assay [4] is MCF7 cells (breast cancer cell line). In words: FACS analysis of labelling of senescent (Doxorubicin-treated) cells. The following applies: with vs without 250 nM Doxorubicin, labeled with 40 ng/ml compound, 20 min, 37° C., 5% CO2. As for the experimental part: (§2) FIG. 1: FACS-analysis data of the compound of Example 5 in HCT116 cells (colorectal carcinoma cell line) and MCF7 cells (breast cancer cell line) with and with out 250 nM Doxorubicin treatment.
(§3) MCF7 cells with (senescence +) and without 250 nM Doxorubicin treatment. The cells were incubated 20 min in 37° C. with 5% CO2.
(§4) To show the capability of the compounds of the invention to mark and visualise senescent cells, HCT116 cells (colorectal carcinoma cell line) and MCF7 cells (breast cancer cell line) were incubated 20 min at 37° C. with 5% CO2 in the presence and absence of Doxorubicin. The cells were then labeled with 40 ng/ml of the compound of Example 5.
(§5) To show the capability of the compounds of the invention to mark and visualise senescent cells, HCT116 cells (colorectal carcinoma cell line) and MCF7 cells (breast cancer cell line) were incubated 20 min in 37° C. with 5% CO2. The cells were then labeled with 40 ng/ml of the compound of Example 2.
A general note: Flow cytometry measures light scatter and fluorescence of single cells or particles in a stream.

For assay [5], the system named is HCT116 cells (colorectal carcinoma cell line). The description is as above. As to conditions: with vs without 250 nM Doxorubicin, labeled with 40 ng/ml compound, 20 min, 37° C., 5% CO2. The method, then: as §2, §3, §4, §5

For `COc1cccc2c1C(=O)c1c(O)c3c(c(O)c1C2=O)C[C@@](O)(C(=O)CO)C[C@@H]3O[C@H]1C[C@H](N)[C@H](O)[C@H](C)O1` [Doxorubicin], in assay [1], the “β-gal expression (senescence staining)” value is on record as “strong expression of β-gal”. In addition, the “lysosome staining signal compared to untreated cells” value in assay [2] and in assay [3] was “enhanced positive lysosome staining” in each case.

As to `CN(C)c1cccc2c(S(=O)(=O)NCCNc3ccnc4cc(Cl)ccc34)cccc12` [Example 2], the “enrichment of the labeled compound in Doxorubicin-treated (senescent) cells (FACS)” value in assay [4] and in assay [5] was “enhanced enrichment” in each case.

On to `CCN(CC)c1ccc2nc3c4cc(OCCCS[C@H]5O[C@@H](C)[C@@H](O)[C@@H](O)[C@@H]5O)ccc4c(=O)cc-3oc2c1` [Example 5], for which the “enrichment of the labeled compound in Doxorubicin-treated (senescent) cells (FACS)” value in assay [4] is reported as “enhanced enrichment”.
